Activity calls are given as the source filed them. The rule behind the calls is not given here.
Tested on: rodent carcinogenicity bioassays, tumor incidence
Test: CCRIS carcinogenicity studies
How it was run: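 NCI-built, expert-reviewed records of carcinogenicity and related test outcomes (mutagenicity, tumor promotion/inhibition) compiled from published and report sources, historical span 1985-2011, not updated.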

NCCCCCCCCCCC(=O)O
carcinogen call (Species: MOUSE, Strain/Sex: B6C3F1/FEMALE, Route: ORAL, Dose: 0, 7500, 15000 PPM IN DIET FOR 103 WK (STUDY DURATION: 103 WK), Dose: 0, 7500, 15000 PPM IN DIET FOR 103 WK (STUDY DURATION: 103 WK)): inactive; negative | carcinogen call (Species: MOUSE, Strain/Sex: B6C3F1/MALE, Route: ORAL, Dose: 0, 7500, 15000 PPM IN DIET FOR 103 WK (STUDY DURATION: 103 WK), Dose: 0, 7500, 15000 PPM IN DIET FOR 103 WK (STUDY DURATION: 103 WK), Tumor Site: Type of Lesion: HEMATOPOIETIC SYSTEM: MALIGNANT LYMPHOMA): equivocal | carcinogen call (Species: RAT, Strain/Sex: F344/FEMALE, Route: ORAL, Dose: 0, 7500, 15000 PPM IN DIET FOR 104 WK (STUDY DURATION: 104 WK), Dose: 0, 7500, 15000 PPM IN DIET FOR 104 WK (STUDY DURATION: 104 WK)): inactive; negative | carcinogen call (Species: RAT, Strain/Sex: F344/MALE, Route: ORAL, Dose: 0, 7500, 15000 PPM IN DIET FOR 104 WK (STUDY DURATION: 104 WK), Dose: 0, 7500, 15000 PPM IN DIET FOR 104 WK (STUDY DURATION: 104 WK), Tumor Site: Type of Lesion: LIVER: NEOPLASTIC NODULE, URINARY BLADDER: TRANSITIONAL CELL CARCINOMA): active; positive

CN1C(C(=O)Nc2ccccn2)=C(O)c2sc(Cl)cc2S1(=O)=O
carcinogen call (Species: RAT, Strain/Sex: SPRAGUE-DAWLEY/FEMALE, Route: GAVAGE, Dose: 0, 0.0625, 0.125, 0.250 MG/KG BW/D FOR 104 WK, HIGH DOSE REDUCED TO 0.0200 MG/KG FROM STUDY WK 42 TO 50 THEN TO 0.160 MG, Dose: 0, 0.0625, 0.125, 0.250 MG/KG BW/D FOR 104 WK, HIGH DOSE REDUCED TO 0.0200 MG/KG FROM STUDY WK 42 TO 50 THEN TO 0.160 MG): inactive; negative | carcinogen call (Species: RAT, Strain/Sex: SPRAGUE-DAWLEY/MALE, Route: GAVAGE, Dose: 0, 0.0625, 0.125, 0.250 MG/KG BW/D FOR 104 WK (STUDY DURATION: 104 WK), Dose: 0, 0.0625, 0.125, 0.250 MG/KG BW/D FOR 104 WK (STUDY DURATION: 104 WK)): inactive; negative

CC(=O)OCN(N=O)c1ccccc1
carcinogen call (Species: HAMSTER, Strain/Sex: SYRIAN/FEMALE, Route: SUBCUTANEOUS, Dose: 0, 1.56, 3.13 MG/KG/WK IN OLIVE OIL FOR LIFE (STUDY DURATION: 60 WK), Dose: 0, 1.56, 3.13 MG/KG/WK IN OLIVE OIL FOR LIFE (STUDY DURATION: 60 WK), Tumor Site: Type of Lesion: INJECTION SITE: TUMOR): active; positive | carcinogen call (Species: HAMSTER, Strain/Sex: SYRIAN/FEMALE, Route: SUBCUTANEOUS, Dose: 0, 6.25, 12.5 MG/KG/WK IN OLIVE OIL FOR 4 WK (STUDY DURATION: 60 WK), Dose: 0, 6.25, 12.5 MG/KG/WK IN OLIVE OIL FOR 4 WK (STUDY DURATION: 60 WK)): inactive; negative | carcinogen call (Species: HAMSTER, Strain/Sex: SYRIAN/MALE, Route: SUBCUTANEOUS, Dose: 0, 1.56, 3.13 MG/KG/WK IN OLIVE OIL FOR LIFE (STUDY DURATION: 60 WK), Dose: 0, 1.56, 3.13 MG/KG/WK IN OLIVE OIL FOR LIFE (STUDY DURATION: 60 WK)): inactive; negative | carcinogen call (Species: HAMSTER, Strain/Sex: SYRIAN/MALE, Route: SUBCUTANEOUS, Dose: 0, 6.25, 12.5 MG/KG/WK IN OLIVE OIL FOR 4 WK (STUDY DURATION: 60 WK), Dose: 0, 6.25, 12.5 MG/KG/WK IN OLIVE OIL FOR 4 WK (STUDY DURATION: 60 WK)): inactive; negative

O=C([O-])CNCCNCC(=O)[O-].O=C([O-])CNCCNCC(=O)[O-].O=C([O-])CNCCNCC(=O)[O-].[Fe+3].[Fe+3]
carcinogen call (Species: RAT, Strain/Sex: WISTAR/MALE, Route: INTRAPERITONEAL, Dose: 0, 10 MG/KG BW 2/WK FOR 3 MO (STUDY DURATION: 1 YR), Tumor Site: Type of Lesion: KIDNEY: TUMOR): active; positive

CCN(C)N=O
carcinogen call (Species: HAMSTER, Strain/Sex: SYRIAN/MALE, Route: GAVAGE, Dose: 0, 1.8 MG/KG 1/WK FOR 23-30 WK (TOTAL DOSE: 0; 0.53 MMOL) (STUDY DURATION: LIFETIME), Dose: 0, 1.8 MG/KG 1/WK FOR 23-30 WK (TOTAL DOSE: 0; 0.53 MMOL) (STUDY DURATION: LIFETIME), Tumor Site: Type of Lesion: LIVER: HEPATOCELLULAR CARCINOMA, HEPATOCELLULAR ADENOMA, CHOLANGIOCARCINOMA, CHOLANGIOMA, HEMANGIOSARCOMA, NASAL MUCOSA:): active; positive | carcinogen call (Species: RAT, Strain/Sex: F344/FEMALE, Route: GAVAGE, Dose: 0, 4.6 MG/WK FOR A TOTAL DOSE OF 1.4 MMOL (STUDY DURATION: 40 WK), Tumor Site: Type of Lesion: LIVER: TUMOR, LUNG: TUMOR): active; positive | carcinogen call (Species: RAT, Strain/Sex: F344/FEMALE, Route: INTRAVESICULAR, Dose: 0, 2.3 MG IN 0.2 ML ETHANOL: DEIONIZED WATER (1:3) 2/WK FOR 30 WK (TOTAL DOSE 1.6 MMOL) (STUDY DURATION: LIFESPAN), Tumor Site: Type of Lesion: LIVER: HEMANGIOSARCOMA, LUNG: TUMOR, KIDNEY: TUMOR, Tumor Site: Type of Lesion: LIVER: HEMANGIOSARCOMA, LUNG: TUMOR, KIDNEY: TUMOR): active; positive | carcinogen call (Species: RAT, Strain/Sex: F344/MALE, Route: GAVAGE, Dose: 0, 4.6 MG/WK FOR A TOTAL DOSE OF 1.6 MMOL (STUDY DURATION: 60 WK), Tumor Site: Type of Lesion: LIVER: TUMOR, LUNG: TUMOR, NASAL MUCOSA: TUMOR, Tumor Site: Type of Lesion: LIVER: TUMOR, LUNG: TUMOR, NASAL MUCOSA: TUMOR): active; positive

CC(=O)CCNCN=O
carcinogen call (Species: HAMSTER, Strain/Sex: SYRIAN/FEMALE, Route: SUBCUTANEOUS, Dose: 20.25, 40.5, 81MG/KG 1/WK FOR LIFE, Dose: 20.25, 40.5, 81MG/KG 1/WK FOR LIFE, Tumor Site: Type of Lesion: NASAL CAVITY: ADENOCARCINOMA, ORAL CAVITY (CHEEK POUCH): SQUAMOUS CELL PAPILLOMA, SQUAMOUS CELL CARCINOMA, COLON: CARCIN, Tumor Site: Type of Lesion: NASAL CAVITY: ADENOCARCINOMA, ORAL CAVITY (CHEEK POUCH): SQUAMOUS CELL PAPILLOMA, SQUAMOUS CELL CARCINOMA, COLON: CARCIN): active; positive | carcinogen call (Species: HAMSTER, Strain/Sex: SYRIAN/MALE, Route: SUBCUTANEOUS, Dose: 17.63, 35.25, 70.5 MG/KG 1/WKFOR LIFE, Dose: 17.63, 35.25, 70.5 MG/KG 1/WKFOR LIFE, Tumor Site: Type of Lesion: NASAL CAVITY: ADENOCARCINOMA, ORAL CAVITY (CHEEK POUCH): SQUAMOUS CELL PAPILLOMA, SQUAMOUS CELL CARCINOMA, COLON: CARCIN, Tumor Site: Type of Lesion: NASAL CAVITY: ADENOCARCINOMA, ORAL CAVITY (CHEEK POUCH): SQUAMOUS CELL PAPILLOMA, SQUAMOUS CELL CARCINOMA, COLON: CARCIN): active; positive

N#CCNC(=O)c1cnccc1C(F)(F)F
carcinogen call (Species: Mouse, Strain/Sex: Crl:CD-1(ICR)BR VAF/Plus / Female (60/Group), Route: Oral, Dose: 0, 250, 750, 2250 ppm (0; 38; 112; 334 mg/kg/day) in diet for 18 mo, study duration 18 mo, Dose: 0, 250, 750, 2250 ppm (0; 38; 112; 334 mg/kg/day) in diet for 18 mo, study duration 18 mo, Tumor Site: Type of Lesion: Lung: alveolar/bronchiolar adenomas and carcinomas): active; positive | carcinogen call (Species: Mouse, Strain/Sex: Crl:CD-1(ICR)BR VAF/Plus / Male (60/Group), Route: Oral, Dose: 0, 250, 750, 2250 ppm (0; 29; 88; 261 mg/kg/day) in diet for 18 mo, study duration 18 mo, Dose: 0, 250, 750, 2250 ppm (0; 29; 88; 261 mg/kg/day) in diet for 18 mo, study duration 18 mo, Tumor Site: Type of Lesion: Lung: alveolar/bronchiolar adenomas and carcinomas): active; positive | carcinogen call (Species: Rat, Strain/Sex: Wistar (Jcl:Wistar)/Female (52/Group), Route: Oral, Dose: 0, 200, 1000, 5000 ppm (0; 8.92; 44.1; 219 mg/kg/day) in diet for 2 yr, study duration 2 yr, Dose: 0, 200, 1000, 5000 ppm (0; 8.92; 44.1; 219 mg/kg/day) in diet for 2 yr, study duration 2 yr): inactive; negative | carcinogen call (Species: Rat, Strain/Sex: Wistar (Jcl:Wistar)/Male (52/Group), Route: Oral, Dose: 0, 50, 100, 200, 1000 ppm (0; 1.84; 3.68; 7.32; 36.5 mg/kg/day) in diet for 2 yr, study duration 2 yr, Dose: 0, 50, 100, 200, 1000 ppm (0; 1.84; 3.68; 7.32; 36.5 mg/kg/day) in diet for 2 yr, study duration 2 yr): inactive; negative

CN(CCCC(O)c1cccnc1)N=O (stereo not drawn)
carcinogen call (Species: MOUSE, Strain/Sex: STRAIN-A/FEMALE, Route: INTRAPERITONEAL, Dose: 0, 10, 50 UMOL TOTAL DOSE ADMINISTERED IN SUBDOSES 3/WK FOR 7 WK (STUDY DURATION: 37 WK), Dose: 0, 10, 50 UMOL TOTAL DOSE ADMINISTERED IN SUBDOSES 3/WK FOR 7 WK (STUDY DURATION: 37 WK), Tumor Site: Type of Lesion: LUNG: TUMOR): active; positive | carcinogen call (Species: RAT, Strain/Sex: F344/MALE, Route: ORAL, Dose: 0, 5 PPM IN DRINKING WATER FOR DURATION OF STUDY (TOTAL DOSE: 0; 0.69 MMOL/KG) (STUDY DURATION: 112 WK), Dose: 0, 5 PPM IN DRINKING WATER FOR DURATION OF STUDY (TOTAL DOSE: 0; 0.69 MMOL/KG) (STUDY DURATION: 112 WK), Tumor Site: Type of Lesion: LUNG: ADENOCARCINOMA, ADENOSQUAMOUS CARCINOMA, EXOCRINE PANCREAS: ACINAR ADENOMA OR ACINAR ADENOCARCINOMA OR DUCTAL ADEN): active; positive
